Data published in patent publication US20240182948A1, “METHODS AND COMPOSITIONS FOR DETECTION OF TUMOR DNA” (The Broad Institute, Inc., priority 2021, published 2024).

Test system: macrophages co-incubated with apoptotic KPLG cells
Test: Chloroquine treatment of macrophages after co-incubation with apoptotic KPLG cells; recovery of tumor DNA from cell fractions
Format: cell-based, murine
Procedure: FIG. 9A: Cytoplasmic DNA mass recovered from macrophages with or without 25 μM CQ treatment for 3 hours. FIG. 9B: Nuclear DNA mass recovered from macrophages with or without 25 μM CQ treatment for 3 hours. FIG. 9C: Cytoplasmic KRAS G12D to WT ratio. Apoptotic KPLG cells were washed away after 1 hour of co-incubation with macrophages before CQ treatment. FIG. 9D: Nuclear KRAS G12D to WT ratio. Apoptotic KPLG cells were washed away after 1 hour of co-incubation with macrophages before CQ treatment.
To test if pharmacologically blocking the DNA degradation pathway could lead to increased recovery of tumor DNA in macrophages, apoptotic KPLG cells were co-incubated with macrophage cells for 1 hour, after which apoptotic cells were washed away, and macrophages were treated either with or without 25 μM chloroquine.
Cell lines: KPLG cells were kindly provided by the Jacks Laboratory at the Massachusetts Institute of Technology (MIT). BMDM were harvested from femurs of wild-type […] mice and DNase 2a−/− mice. KPLG cells were cultured in DMEM supplemented with 10% fetal bovine serum (Gibco) and 1% penicillin/streptomycin (Corning); BMDM cells were cultured in DMEM supplemented with 10% fetal bovine serum (Gibco) and 1% penicillin/streptomycin (Corning), and 15% L929 conditioned medium. All cells were cultured in a humidified atmosphere of 95% air and 5% CO2 at 37° C. The KPLG cell line was declared pathogen free after being subjected to murine pathogen testing by the Diagnostic Laboratory of the Division of Comparative Medicine (MIT).
Cell fractionation and DNA extraction: Cells were collected by centrifugation at 3000×g for 7 min. The cells were lysed using four volumes of lysis buffer (20 mM Tris-HCl, pH 7.4, 10 mM KCl, 2 mM MgCl2, 1 mM DTT, and 1 mM EDTA) for 20 min. on ice. The nuclear pellet was collected by centrifugation twice at 800×g for 5 min. The mitochondrial fraction was collected by centrifugation twice at 10,000×g for 10 min. The collected supernatant was used as the cytoplasmic fraction. […]

## CCN(CC)CCCC(C)Nc1ccnc2cc(Cl)ccc12 (stereo not drawn) [Chloroquine, chloroquine]
25 μM CQ treatment for 3 hours, legend of FIGS. 9A-9D
  digestion of cytoplasmic tumor-derived DNA by macrophages: inhibits digestion
25 μM chloroquine vs. no treatment, apoptotic KPLG cells washed away after 1 hour of co-incubation, FIG. 9A: treatment for 3 hours
  total cytoplasmic DNA mass recovered from macrophages: increase
25 μM chloroquine vs. no treatment, apoptotic KPLG cells washed away after 1 hour of co-incubation, TaqMan qPCR
  presence of KRAS G12D in the cytoplasmic DNA fraction of macrophages (KRAS G12D to WT ratio): increase
